Test results: patent US10344060B2 (priority 2013, dated 2019)
Like-named read-outs stand apart in the source and are kept apart here.

Columns and labels:
[1] = target: hNav1.4 (Homo sapiens, UniProt P35499); assay: cell-based; format: cell-based; details: for IC50: PatchXpress, read-out: PX hNav1.4 Tonic IC50; for Nav1.4/Nav1.7: ratio of PX tonic IC50 values
[2] = target: hNav1.7 (Homo sapiens, UniProt Q15858); assay: cell-based; format: cell-based; details: for IC50: PatchXpress, read-out: PX hNav1.7 Tonic IC50; for Nav1.4/Nav1.7: ratio of PX tonic IC50 values
hNav1.7, sequence (Q15858 whole entry): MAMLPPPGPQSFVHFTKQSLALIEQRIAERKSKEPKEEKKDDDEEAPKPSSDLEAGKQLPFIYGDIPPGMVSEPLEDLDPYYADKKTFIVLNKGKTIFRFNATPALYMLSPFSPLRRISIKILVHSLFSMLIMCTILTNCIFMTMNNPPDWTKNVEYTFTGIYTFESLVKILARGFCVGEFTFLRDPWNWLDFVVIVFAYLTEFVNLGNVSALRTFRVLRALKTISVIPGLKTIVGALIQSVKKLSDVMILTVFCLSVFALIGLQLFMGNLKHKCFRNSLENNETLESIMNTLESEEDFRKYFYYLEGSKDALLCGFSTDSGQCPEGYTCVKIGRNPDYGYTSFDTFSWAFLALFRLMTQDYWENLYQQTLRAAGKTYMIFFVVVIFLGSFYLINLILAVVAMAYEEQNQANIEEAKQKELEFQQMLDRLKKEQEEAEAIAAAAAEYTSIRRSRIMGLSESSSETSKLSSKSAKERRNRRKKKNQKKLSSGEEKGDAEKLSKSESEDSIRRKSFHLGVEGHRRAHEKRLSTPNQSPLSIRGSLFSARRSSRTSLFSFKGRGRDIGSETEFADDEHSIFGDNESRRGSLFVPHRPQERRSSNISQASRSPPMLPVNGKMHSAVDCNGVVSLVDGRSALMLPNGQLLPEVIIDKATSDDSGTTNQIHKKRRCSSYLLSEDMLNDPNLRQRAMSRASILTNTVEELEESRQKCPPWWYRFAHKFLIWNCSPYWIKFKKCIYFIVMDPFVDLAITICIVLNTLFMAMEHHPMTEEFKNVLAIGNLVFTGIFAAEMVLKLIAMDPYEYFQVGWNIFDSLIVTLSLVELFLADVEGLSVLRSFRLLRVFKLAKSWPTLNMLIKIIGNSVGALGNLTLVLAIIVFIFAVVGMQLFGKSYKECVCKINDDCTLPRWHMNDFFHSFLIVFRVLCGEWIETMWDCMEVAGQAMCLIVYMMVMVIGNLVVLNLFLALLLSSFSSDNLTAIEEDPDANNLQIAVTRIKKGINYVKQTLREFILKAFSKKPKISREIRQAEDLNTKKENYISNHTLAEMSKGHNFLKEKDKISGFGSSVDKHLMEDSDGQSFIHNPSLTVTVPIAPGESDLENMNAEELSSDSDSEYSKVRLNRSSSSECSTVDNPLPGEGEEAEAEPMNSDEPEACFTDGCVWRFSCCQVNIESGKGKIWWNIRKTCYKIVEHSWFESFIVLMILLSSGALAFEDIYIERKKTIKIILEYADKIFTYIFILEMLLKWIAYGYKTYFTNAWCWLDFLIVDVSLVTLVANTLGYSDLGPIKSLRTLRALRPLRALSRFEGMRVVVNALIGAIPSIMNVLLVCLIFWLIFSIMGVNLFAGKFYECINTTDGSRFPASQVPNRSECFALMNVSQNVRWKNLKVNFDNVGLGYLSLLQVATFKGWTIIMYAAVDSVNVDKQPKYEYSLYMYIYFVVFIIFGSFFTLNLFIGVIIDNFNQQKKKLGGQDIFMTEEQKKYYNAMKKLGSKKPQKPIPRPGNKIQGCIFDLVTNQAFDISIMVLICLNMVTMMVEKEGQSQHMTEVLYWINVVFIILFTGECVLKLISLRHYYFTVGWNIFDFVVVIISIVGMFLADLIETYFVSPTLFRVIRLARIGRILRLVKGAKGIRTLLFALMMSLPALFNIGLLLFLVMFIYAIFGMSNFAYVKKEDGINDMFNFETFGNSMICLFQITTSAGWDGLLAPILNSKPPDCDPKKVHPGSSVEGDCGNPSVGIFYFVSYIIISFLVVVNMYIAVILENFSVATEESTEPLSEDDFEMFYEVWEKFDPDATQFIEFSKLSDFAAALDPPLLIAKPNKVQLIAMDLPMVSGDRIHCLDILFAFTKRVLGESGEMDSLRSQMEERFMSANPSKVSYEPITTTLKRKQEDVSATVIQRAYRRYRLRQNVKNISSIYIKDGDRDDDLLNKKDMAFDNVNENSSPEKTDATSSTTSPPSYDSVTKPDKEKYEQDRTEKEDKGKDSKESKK

hNav1.4, sequence (P35499 whole entry): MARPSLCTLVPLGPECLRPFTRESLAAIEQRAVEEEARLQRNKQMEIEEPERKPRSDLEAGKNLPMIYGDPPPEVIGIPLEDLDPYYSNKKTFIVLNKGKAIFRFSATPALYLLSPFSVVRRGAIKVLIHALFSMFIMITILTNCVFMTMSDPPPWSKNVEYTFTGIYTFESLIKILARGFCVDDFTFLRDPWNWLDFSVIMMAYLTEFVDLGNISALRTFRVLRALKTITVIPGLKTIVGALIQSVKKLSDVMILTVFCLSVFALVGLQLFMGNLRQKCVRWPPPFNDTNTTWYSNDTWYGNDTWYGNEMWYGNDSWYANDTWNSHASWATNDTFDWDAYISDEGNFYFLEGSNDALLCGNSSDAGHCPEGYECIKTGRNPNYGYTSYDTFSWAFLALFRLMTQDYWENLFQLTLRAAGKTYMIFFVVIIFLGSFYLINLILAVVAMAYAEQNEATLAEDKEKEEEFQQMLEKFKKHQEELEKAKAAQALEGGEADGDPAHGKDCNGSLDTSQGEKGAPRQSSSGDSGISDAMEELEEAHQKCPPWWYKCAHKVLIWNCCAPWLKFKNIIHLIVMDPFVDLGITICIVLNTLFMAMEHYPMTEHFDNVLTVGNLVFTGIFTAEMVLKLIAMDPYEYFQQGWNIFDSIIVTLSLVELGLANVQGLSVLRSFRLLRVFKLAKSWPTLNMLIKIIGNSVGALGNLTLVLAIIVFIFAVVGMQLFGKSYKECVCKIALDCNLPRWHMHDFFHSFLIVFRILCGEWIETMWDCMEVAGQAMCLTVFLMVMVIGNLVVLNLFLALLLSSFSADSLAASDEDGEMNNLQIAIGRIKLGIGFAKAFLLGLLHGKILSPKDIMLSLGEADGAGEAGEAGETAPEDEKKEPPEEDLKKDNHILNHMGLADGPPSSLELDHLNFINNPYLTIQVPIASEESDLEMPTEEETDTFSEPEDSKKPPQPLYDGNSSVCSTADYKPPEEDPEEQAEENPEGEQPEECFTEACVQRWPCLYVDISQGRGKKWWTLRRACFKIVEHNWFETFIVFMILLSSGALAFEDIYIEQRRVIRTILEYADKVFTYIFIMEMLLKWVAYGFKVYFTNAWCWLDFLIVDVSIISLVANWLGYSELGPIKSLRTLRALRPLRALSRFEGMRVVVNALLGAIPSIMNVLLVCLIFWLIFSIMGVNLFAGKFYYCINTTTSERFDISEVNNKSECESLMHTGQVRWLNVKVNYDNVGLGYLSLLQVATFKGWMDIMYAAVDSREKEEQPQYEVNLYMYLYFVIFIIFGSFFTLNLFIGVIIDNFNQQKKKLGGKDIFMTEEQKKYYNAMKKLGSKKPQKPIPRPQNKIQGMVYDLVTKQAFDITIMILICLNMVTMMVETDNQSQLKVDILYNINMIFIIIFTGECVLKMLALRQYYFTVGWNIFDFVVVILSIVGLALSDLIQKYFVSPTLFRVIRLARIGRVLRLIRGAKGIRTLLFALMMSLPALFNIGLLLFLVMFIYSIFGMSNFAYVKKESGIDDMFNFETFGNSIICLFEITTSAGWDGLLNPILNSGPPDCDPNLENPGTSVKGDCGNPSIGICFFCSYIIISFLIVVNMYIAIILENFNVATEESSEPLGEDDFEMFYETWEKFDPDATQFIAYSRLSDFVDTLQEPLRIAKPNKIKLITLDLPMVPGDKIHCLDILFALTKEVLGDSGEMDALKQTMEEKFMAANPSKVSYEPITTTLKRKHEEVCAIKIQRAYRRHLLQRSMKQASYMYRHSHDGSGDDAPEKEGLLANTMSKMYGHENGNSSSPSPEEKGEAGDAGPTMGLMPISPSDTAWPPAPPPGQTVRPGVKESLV

Structure (SMILES)	IC50 ([1]; tonic, Table 11)	IC50 ([2]; tonic, Table 11)	Nav1.4/Nav1.7 ([2]; Table 11)	Nav1.4/Nav1.7 ([1]; Table 12)	further results
CC[C@H](C)[C@H](NC(=O)[C@@H](NC(=O)[C@H](CCCCN)NC(=O)[C@H](CCCNC(=N)N)NC(=O)[C@@H]1CSSC[C@@H]2NC(=O)[C@H](C)NC(=O)[C@H](CCCNC(=N)N)NC(=O)[C@H](CCCCN)NC(=O)[C@H](CO)NC(=O)[C@H](CC(=O)O)NC(=O)[C@@H]3CSSC[C@H](NC(=O)[C@H](CCCNC(=N)N)NC(=O)[C@H](CC(C)C)NC(=O)CNC(=O)[C@H](CCC(=O)O)NC(=O)[C@H](CSSC[C@H](NC(=O)[C@@H](N)Cc4ccc(O)cc4)C(=O)N[C@@H](CCC(=O)O)C(=O)N[C@@H](CCCCN)C(=O)N[C@@H](Cc4c[nH]c5ccccc45)C(=O)N[C@@H](CCSC)C(=O)N[C@@H](Cc4c[nH]c5ccccc45)C(=O)N[C@@H]([C@@H](C)O)C(=O)N3)NC2=O)C(=O)N[C@@H](CCCCN)C(=O)N[C@@H](CC(C)C)C(=O)N[C@@H](Cc2c[nH]c3ccccc23)C(=O)N1)[C@@H](C)CC)C(N)=O [compound 50]	453 nM	58.7 nM	8		
CC[C@H](C)[C@H](NC(=O)[C@@H](NC(=O)[C@H](CCCCN)NC(=O)[C@H](CCCNC(=N)N)NC(=O)[C@@H]1CSSC[C@@H]2NC(=O)[C@H](C)NC(=O)[C@H](CCCNC(=N)N)NC(=O)[C@H](CCCCN)NC(=O)[C@H](CO)NC(=O)[C@H](CC(=O)O)NC(=O)[C@@H]3CSSC[C@H](NC(=O)[C@H](CCCNC(=N)N)NC(=O)[C@H](CC(C)C)NC(=O)CNC(=O)[C@H](CCC(=O)O)NC(=O)[C@H](CSSC[C@H](NC(=O)[C@@H](N)Cc4ccc(O)cc4)C(=O)N[C@@H](CCC(N)=O)C(=O)N[C@@H](CCCCN)C(=O)N[C@@H](CCC(=O)O)C(=O)N[C@@H](CCSC)C(=O)N[C@@H](Cc4c[nH]c5ccccc45)C(=O)N[C@@H]([C@@H](C)O)C(=O)N3)NC2=O)C(=O)N[C@@H](CCCCN)C(=O)N[C@@H](CC(C)C)C(=O)N[C@@H](Cc2c[nH]c3ccccc23)C(=O)N1)[C@@H](C)CC)C(N)=O [compound 52]	3.1 nM	> 1000 nM			
CC[C@H](C)[C@H](NC(=O)[C@@H](NC(=O)[C@H](CCCCN)NC(=O)[C@H](CCCNC(=N)N)NC(=O)[C@@H]1CSSC[C@@H]2NC(=O)[C@H](C)NC(=O)[C@H](CCCNC(=N)N)NC(=O)[C@H](CCC(=O)O)NC(=O)[C@H](CO)NC(=O)[C@H](CC(=O)O)NC(=O)[C@@H]3CSSC[C@H](NC(=O)[C@H](CCCNC(=N)N)NC(=O)[C@H](CC(C)C)NC(=O)CNC(=O)[C@H](CCC(=O)O)NC(=O)[C@H](CSSC[C@H](NC(=O)[C@@H](N)Cc4ccc(O)cc4)C(=O)N[C@@H](CCC(N)=O)C(=O)N[C@@H](CCCCN)C(=O)N[C@@H](Cc4c[nH]c5ccccc45)C(=O)N[C@@H](CCSC)C(=O)N[C@@H](Cc4c[nH]c5ccccc45)C(=O)N[C@@H]([C@@H](C)O)C(=O)N3)NC2=O)C(=O)N[C@@H](CCCCN)C(=O)N[C@@H](CC(C)C)C(=O)N[C@@H](Cc2c[nH]c3ccccc23)C(=O)N1)[C@@H](C)CC)C(N)=O [compound 58]	43.2 nM	0.904 nM	48		
CC[C@H](C)[C@H](NC(=O)[C@@H](NC(=O)[C@H](CCCCN)NC(=O)[C@H](CCCNC(=N)N)NC(=O)[C@@H]1CSSC[C@@H]2NC(=O)[C@H](C)NC(=O)[C@H](CCCNC(=N)N)NC(=O)[C@H](CCCCN)NC(=O)[C@H](CO)NC(=O)[C@H](CC(=O)O)NC(=O)[C@@H]3CSSC[C@H](NC(=O)[C@H](CCCNC(=N)N)NC(=O)[C@H](CC(C)C)NC(=O)CNC(=O)[C@H](CCC(=O)O)NC(=O)[C@H](CSSC[C@H](NC(=O)[C@@H](N)Cc4ccc(O)cc4)C(=O)N[C@@H](CCC(N)=O)C(=O)N[C@@H](CCCCN)C(=O)N[C@@H](Cc4c[nH]c5ccccc45)C(=O)N[C@@H](CCSC)C(=O)N[C@@H](Cc4c[nH]c5ccccc45)C(=O)N[C@@H]([C@@H](C)O)C(=O)N3)NC2=O)C(=O)N[C@@H](CCC(=O)O)C(=O)N[C@@H](CC(C)C)C(=O)N[C@@H](Cc2c[nH]c3ccccc23)C(=O)N1)[C@@H](C)CC)C(N)=O [compound 64]	4340 nM	930 nM	5		
CC[C@H](C)[C@H](NC(=O)[C@@H](NC(=O)[C@H](CCC(=O)O)NC(=O)[C@H](CCCNC(=N)N)NC(=O)[C@@H]1CSSC[C@@H]2NC(=O)[C@H](C)NC(=O)[C@H](CCCNC(=N)N)NC(=O)[C@H](CCCCN)NC(=O)[C@H](CO)NC(=O)[C@H](CC(=O)O)NC(=O)[C@@H]3CSSC[C@H](NC(=O)[C@H](CCCNC(=N)N)NC(=O)[C@H](CC(C)C)NC(=O)CNC(=O)[C@H](CCC(=O)O)NC(=O)[C@H](CSSC[C@H](NC(=O)[C@@H](N)Cc4ccc(O)cc4)C(=O)N[C@@H](CCC(N)=O)C(=O)N[C@@H](CCCCN)C(=O)N[C@@H](Cc4c[nH]c5ccccc45)C(=O)N[C@@H](CCSC)C(=O)N[C@@H](Cc4c[nH]c5ccccc45)C(=O)N[C@@H]([C@@H](C)O)C(=O)N3)NC2=O)C(=O)N[C@@H](CCCCN)C(=O)N[C@@H](CC(C)C)C(=O)N[C@@H](Cc2c[nH]c3ccccc23)C(=O)N1)[C@@H](C)CC)C(N)=O [compound 68]	324 nM	12.3 nM	26		
C#CC[C@@H]1NC(=O)[C@@H]2CSSC[C@H](NC(=O)[C@H](Cc3ccc(O)cc3)NC(=O)[C@@H](N)CC#N)C(=O)N[C@@H](CCC(N)=O)C(=O)N[C@@H](CCCCN)C(=O)N[C@@H](Cc3c[nH]c4ccccc34)C(=O)N[C@@H](CCCC)C(=O)N[C@@H](Cc3c[nH]c4ccccc34)C(=O)N[C@@H]([C@@H](C)O)C(=O)N[C@H]3CSSC[C@H](NC(=O)[C@H](CCC(=O)O)NC(=O)[C@H](CC(C)C)NC(=O)CNC1=O)C(=O)N[C@@H](CCCCN)C(=O)N[C@@H](CC(C)C)C(=O)N[C@@H](Cc1c[nH]c4ccccc14)C(=O)N[C@H](C(=O)N[C@@H](CCCNC(=N)N)C(=O)N[C@@H](CCCCN)C(=O)N[C@H](C(=O)N[C@H](C(N)=O)[C@@H](C)CC)[C@@H](C)CC)CSSC[C@H](NC(=O)[C@H](C)NC(=O)[C@H](CCCNC(=N)N)NC(=O)[C@H](CCCCN)NC(=O)[C@H](CO)NC(=O)[C@H](CC(=O)O)NC3=O)C(=O)N2 [compound 396]				98	IC50 ([1]; Table 12, tonic block): 278 nM; IC50 ([2]; Table 12, tonic block): 2.84 nM
C#CC[C@H](N)C(=O)NCCCC[C@@H]1NC(=O)[C@H](CCCNC(=N)N)NC(=O)[C@H](CCCCN)NC(=O)[C@H](CO)NC(=O)[C@H](CC(=O)O)NC(=O)[C@@H]2CSSC[C@@H]3NC(=O)[C@H](CCCNC(=N)N)NC(=O)[C@H](CC(C)C)NC(=O)CNC(=O)[C@H](CCC(=O)O)NC(=O)[C@H](CSSC[C@H](NC(=O)[C@H](Cc4ccc(O)cc4)NC(=O)[C@@H](N)CCC)C(=O)N[C@@H](CCC(N)=O)C(=O)N[C@@H](CCCCN)C(=O)N[C@@H](Cc4c[nH]c5ccccc45)C(=O)N[C@@H](CCCC)C(=O)N[C@@H](Cc4c[nH]c5ccccc45)C(=O)N[C@@H]([C@@H](C)O)C(=O)N2)NC(=O)[C@H](CSSC[C@@H](C(=O)N[C@@H](CCCNC(=N)N)C(=O)N[C@@H](CCCCN)C(=O)N[C@@H](CCC(=O)O)C(=O)N[C@H](C(N)=O)[C@@H](C)CC)NC(=O)[C@H](Cc2c[nH]c4ccccc24)NC(=O)[C@H](CC(C)C)NC(=O)[C@H](CCCCN)NC3=O)NC1=O [compound 435]				99	
C#CC[C@H](N)C(=O)NCCCC[C@@H]1NC(=O)[C@H](CCCNC(=N)N)NC(=O)[C@H](CCCCN)NC(=O)[C@H](CO)NC(=O)[C@H](CC(=O)O)NC(=O)[C@@H]2CSSC[C@@H]3NC(=O)[C@H](CCCNC(=N)N)NC(=O)[C@H](CC(C)C)NC(=O)CNC(=O)[C@H](CCC(=O)O)NC(=O)[C@H](CSSC[C@H](NC(=O)[C@H](Cc4ccc(O)cc4)NC(=O)[C@@H](N)CCC)C(=O)N[C@@H](CCC(N)=O)C(=O)N[C@@H](CCCCN)C(=O)N[C@@H](Cc4c[nH]c5ccccc45)C(=O)N[C@@H](CC(C)C)C(=O)N[C@@H](Cc4c[nH]c5ccccc45)C(=O)N[C@@H]([C@@H](C)O)C(=O)N2)NC(=O)[C@H](CSSC[C@@H](C(=O)N[C@@H](CCCNC(=N)N)C(=O)N[C@@H](CCCCN)C(=O)N[C@H](C(=O)N[C@H](C(N)=O)[C@@H](C)CC)[C@@H](C)CC)NC(=O)[C@H](Cc2c[nH]c4ccccc24)NC(=O)[C@H](CC(C)C)NC(=O)[C@H](CCCCN)NC3=O)NC1=O [compound 438]				7	
C#CC[C@H](N)C(=O)NCCCC[C@@H]1NC(=O)[C@H](CCCNC(=N)N)NC(=O)[C@H](CCCCN)NC(=O)[C@H](CO)NC(=O)[C@H](CC(=O)O)NC(=O)[C@@H]2CSSC[C@@H]3NC(=O)[C@H](CCCNC(=N)N)NC(=O)[C@H](CC(C)C)NC(=O)CNC(=O)[C@H](CCC(=O)O)NC(=O)[C@H](CSSC[C@H](NC(=O)[C@H](Cc4ccc(O)cc4)NC(=O)[C@@H](N)CCC)C(=O)N[C@@H](CCC(N)=O)C(=O)N[C@@H](CCCCN)C(=O)N[C@@H](Cc4c[nH]c5ccccc45)C(=O)N[C@@H](CC(C)C)C(=O)N[C@@H](Cc4c[nH]c5ccccc45)C(=O)N[C@@H]([C@@H](C)O)C(=O)N2)NC(=O)[C@H](CSSC[C@@H](C(=O)N[C@@H](CCCNC(=N)N)C(=O)N[C@@H](CCCCN)C(=O)N[C@@H](CCC(=O)O)C(=O)N[C@H](C(N)=O)[C@@H](C)CC)NC(=O)[C@H](Cc2c[nH]c4ccccc24)NC(=O)[C@H](CC(C)C)NC(=O)[C@H](CCCCN)NC3=O)NC1=O [compound 439]					IC50 ([1]; Table 12, tonic block): 300 nM
CCCC[C@@H]1NC(=O)[C@H](Cc2c[nH]c3ccccc23)NC(=O)[C@H](CCCCN)NC(=O)[C@H](CCC(N)=O)NC(=O)[C@@H](NC(=O)[C@H](Cc2ccc(O)cc2)NC(=O)[C@@H](N)Cc2cn(CCOCCOCCOCCOCCOCCOCCOCCOCCOCCOCCN)nn2)CSSC[C@@H]2NC(=O)[C@@H]3CSSC[C@@H](C(=O)N[C@@H](CCCNC(=N)N)C(=O)N[C@@H](CCCCN)C(=O)N[C@@H](CCC(=O)O)C(=O)N[C@H](C(N)=O)[C@@H](C)CC)NC(=O)[C@H](Cc4c[nH]c5ccccc45)NC(=O)[C@H](CC(C)C)NC(=O)[C@H](CCCCN)NC(=O)[C@H](CSSC[C@H](NC(=O)[C@H]([C@@H](C)O)NC(=O)[C@H](Cc4c[nH]c5ccccc45)NC1=O)C(=O)N[C@@H](CC(=O)O)C(=O)N[C@@H](CO)C(=O)N[C@@H](CCCCN)C(=O)N[C@@H](CCCNC(=N)N)C(=O)N[C@@H](C)C(=O)N3)NC(=O)[C@H](CCCNC(=N)N)NC(=O)[C@H](CC(C)C)NC(=O)CNC(=O)[C@H](CCC(=O)O)NC2=O [compound 883]					Nav1.4/Nav1.7 ([1]; Table 13): 120
